Consider 45 compounds from US20100022559A1, “BISOXIMES AS FUNGICIDES” (BAYER CROPSCIENCE AG, priority 2006, published 2010).

This data set is described as follows: logP determination by HPLC on a reversed-phase column (C 18), EEC Directive 79/831 Annex V.A8. In kind it is physicochemical. The protocol:
The stated logP values were determined in accordance with EEC Directive 79/831 Annex V.A8 by HPLC (high performance liquid chromatography) on a reversed-phase column (C 18). Temperature: 43° C.

[1] abbreviates: method marker [a] (footnote not shown), isomer A / isomer B / isomer mixture as noted in the cell.
[2] abbreviates: method marker [b], isomer A / isomer B / isomer mixture as noted in the cell.

For the compound `CC(C)=CC1=NOC(CO/N=C(\C)c2cccc(C)n2)(CO/N=C(\C)c2cccc(C)n2)C1` [compound 604], for the setting “method marked [b] in Table 1”, the logP was 3.70^[b].
The same measure, in the same setting: the result for `Cc1cc(C)nc(/C(N)=N/OCc2ccccc2CO/N=C(\N)c2cc(C)cc(C)n2)c1` [compound 724] reads 3.72^[b].
On to `CC(=NOCC1(CON=C(C)c2nc(C)ccc2C)CCCC1)c1nc(C)ccc1C` (single isomer, unassigned) [compound 762], for which the logP is 3.04^[b] (value marked [b]) and 5.14^[c] (value marked [c]).
On to `Cc1ccc(C(=NOCCCON=C(c2ccc(C)c(C)n2)C(C)C)C(C)C)nc1C` (mixture of isomers) [compound 237], for which, under setting [1], the logP was 4.00^[a].
Take `CC(=NOCCCCON=C(C)c1nccc(C)n1)c1cccc(C)n1` [compound 508]: the logP (value marked [b]) is 2.37^[b].
As to `CC(=NOCC(C)CON=C(C)c1cc(C(C)(C)C)ccn1)c1cc(C(C)(C)C)ccn1` (stereo not shown) [compound 104], under setting [1], the logP was 5.88^[a].
In the case of `CC[Si](C)(CON=C(C)c1cccc(C)n1)CON=C(C)c1cccc(C)n1` [Compound 785], the logP reads like this: (value marked [a]) 5.98^[a]; (value marked [b]) 5.98^[b]; (value marked [c]) 6.52^[c].
Turning to `CC(=NOCC(C)CON=C(C)c1ccc2ccc(C)cc2n1)c1ccc2ccc(C)cc2n1` (stereo not shown) [compound 748], the logP (method marked [b] in Table 1) is 7.36^[b] and the logP (method marked [c] in Table 1) is 7.36^[c].
As to `CC(=NOCC(C)CON=C(C)c1cc(-c2ccccc2)ccn1)c1cc(-c2ccccc2)ccn1` (stereo not shown) [Compound 119], the logP under setting [1] is 6.33^[a].
As for `CC(=NOCC(CON=C(C)c1cc(C)cc(C)n1)C(C)(C)C)c1cc(C)cc(C)n1` (stereo not shown) [Compound 559], the logP was 3.60^[b] (method marked [b] in Table 1) and 7.36^[c] (method marked [c] in Table 1).
Regarding `CC(=NOCC1(CON=C(C)c2cccc(C3CC3)n2)CC1)c1cccc(C2CC2)n1` [Compound 848], under “value marked [a]”, the logP is 7.36^[a].
`CC(=NOCCCCCCON=C(C)c1cccc(C)n1)c1cccnc1` [compound 396]: the logP (value marked [b]) is 3.15^b].
As to `C=C(CON=C(Br)c1cccc(C)n1)CON=C(Br)c1cccc(C)n1` [compound 746], the logP (method marked [b] in Table 1) is 4.41^[b].
In the case of `CCOC(=O)C(=NOCCCON=C(C(=O)OCC)c1cccc(C)n1)c1cccc(C)n1` [compound 76], the logP under setting [1] is 4.31^[a].
In the case of `CCOC(=O)C(C)(CON=C(C)c1cccc(C)n1)CON=C(C)c1cccc(C)n1` (stereo not shown) [compound 853], the logP (value marked [b]) is 4.06^[b] and the logP (value marked [c]) is 5.00^[c].
With `C=C(CON=C(C)c1cccc(C)n1)CON=C(C)c1cc(OC)cc(C)n1` (single isomer, unassigned) [Compound 476], the logP (value marked [b]) was 3.33^[b] (isomer B).
With `C/C(=N\OCC1(CO/N=C(\C)c2ccc(C)c(C)n2)CC(c2ccccc2Cl)=NO1)c1ccc(C)c(C)n1` [compound 634], the logP (method marked [b] in Table 1) is 4.3^[b].
`Cc1cccc(C(=NOCC(C)CON=C(c2ccccc2)c2cccc(C)n2)c2ccccc2)n1` (single isomer, unassigned) [compound 661]: under “method marked [a] in Table 1”, the logP is 4.10^[a] (isomer A).
On to `CC(=NOCCCCON=C(C)c1cccc(CC(C)C)n1)c1cccc(C)n1` [compound 326], for which the logP (value marked [b]) is 6.16^[b].
The same measure, in the same setting: the same measure for `C=C(CON=C(C)c1ccc2c(c1)CC(C)O2)CON=C(C)c1cccc(C)n1` (stereo not shown) [compound 468]: 4.85^[b].
For `C=C(CON=C(C)c1cccc(C)n1)CON=C(C)c1ccc(C)c(C)n1` [Compound 204], the logP under setting [2] is 3.10^[b].
The same measure, in the same setting: the result for `C=C(CON=C(C)c1cccc(C)n1)CON=C(C)c1c(C)noc1C` [compound 198] reads 3.50^[b].
As for `CCC(CC)(C(=O)ON=C(C)c1cccc(C)n1)C(=O)ON=C(C)c1cccc(C)n1` [compound 745], the logP (method marked [b] in Table 1) was 4.49^[b].
For `CCOC(=O)C(C)(CON=C(C)c1ccc(C)c(C)n1)CON=C(C)c1ccc(C)c(C)n1` (stereo not shown) [compound 854], the logP is, setting by setting: (value marked [b]) 3.85^[b]; (value marked [c]) 5.82^[c].
For the compound `C/C(=N\OCC(C)CO/N=C(\C)c1cncc(C)n1)c1cccc(C)n1` (stereo not shown) [compound 505], where the note is “value marked [b]”, the logP was 3.85^[b].
For `Cc1cc(C)nc(/C(N)=N/OCc2ccc(CO/N=C(\N)c3nc(C)cc(C)n3)cc2)n1` [compound 702], the logP (method marked [b] in Table 1) was 2.11^[b].
On the same count and under the same terms, the result for `CCC(=NOCC1(CON=C(CC)c2cccc(C)n2)CC(C(C)(C)C)=NO1)c1cccc(C)n1` (stereo not shown) [compound 610] reads 5.21^[b].
In the case of `CCC(=NOCCCCCCON=C(C)c1cccc(C)n1)c1ncccc1C` [compound 343], the logP (value marked [b]) is 4.87^[b] (isomer B).
As for `C=C(CON=C(Cl)c1cccc(C)n1)CON=C(Cl)c1ccc(C)c(C)n1` [compound 822], the logP (value marked [a]) was 4.12^[a].
For the compound `CC(=NOCC(C)CON=C(C)c1nc(C)cs1)c1nc(C)cs1` (mixture of isomers) [compound 122], under setting [1], the logP was 4.98^[a].
`Cc1cccc(C(=NOCCCON=C(c2cccc(C)n2)C(C)C)C(C)C)n1` (single isomer, unassigned) [Compound 88]: the logP under setting [1] was 5.52^[a] (isomer B).
Consider `C=C(CON=C(C)c1cccc(C)n1)CON=C(C)c1sc(C)nc1C` (single isomer, unassigned) [compound 545], for which, where the note is “method marked [b] in Table 1”, the logP was 3.58^[b] (isomer B).
With `CCC(CC)(CON=C(C)c1nc(C)ccc1C)CON=C(C)c1nc(C)ccc1C` [compound 812], the logP runs as follows: (value marked [b]) 5.24^[b]; (value marked [c]) 6.66^[c].
In the case of `CC(=NOCC(C)CON=C(C)c1ccc(C)c(C)n1)c1cc(C)cc(C)n1` (racemic) [Compound 694], the logP is 2.63^[b] (method marked [b] in Table 1) and 6.17^[c] (method marked [c] in Table 1).
Consider `C=CCCC(=NOCC(=C)CON=C(C)c1cccc(C)n1)c1ncccc1C` [compound 353], for which, for the setting “value marked [b]”, the logP was 4.56^[b].
The same measure, in the same setting: the result for `CC(=NOCCCCON=C(c1ccccc1)c1ncccc1C)c1cccc(C)n1` [compound 325] reads 3.89^[b].
Turning to `CC(=NOCCCON=C(C)c1nc(C)cs1)c1nc(C)cs1` [compound 87], the logP under setting [1] is 4.22^[a].
Turning to `C=C(CON=C(C)c1cccc(C)n1)CON=C(C)c1ccnc(C)n1` [compound 360], under “value marked [b]”, the logP was 3.24^[b].
Same read-out and setting: the same measure for `C=C(CON=C(C)c1cccc(C)n1)CON=C(C)c1ccccc1Cl` [compound 402]: 4.74^[b].
`CC(=NOCCCON=C(C)c1cccc(C(F)F)n1)c1cccc(C(F)F)n1` [compound 521]: the logP (value marked [a]) is 5.21^[a].
Regarding `CC(=NOCC(O)CON=C(C)c1cccc(C)n1)c1cccc(C)n1` (stereo not shown) [compound 293], the logP (value marked [b]) was 1.46^[b].
Still for that read-out and setting: the same measure for `CC(=NOCCCCCCON=C(C)c1cccc(C)n1)c1ccc(Cl)cc1` [compound 458]: 6.58^[b].
Regarding `CC(=NOCC1(CON=C(C)c2ccc(C)c(C)n2)CC(C(C)C)=NO1)c1ccc(C)c(C)n1` (stereo not shown) [compound 627], for the setting “method marked [b] in Table 1”, the logP is 3.06^[b].
In the case of `CC(=NOCC1(CON=C(C)c2ccc(C)c(C)n2)CCCCC1)c1ccc(C)c(C)n1` [Compound 320], the logP (value marked [b]) was 5.34^[b] and the logP (value marked [c]) was 7.36^[c].
Turning to `Cc1cccc(C(N)=NOCC(C)CON=C(N)c2cccc(C)n2)n1` (stereo not shown) [compound 689], the logP (method marked [b] in Table 1) is 2.71^[b].
